{
  "source": "patent US20200016200A1",
  "about": "“MODULATING CYTOTOXIC CELL LYTIC GRANULE POSITIONING TO PROMOTE DIFFUSE KILLING IN CELLULAR THERAPIES” (Baylor College of Medicine, priority 2016, published 2020)",
  "system": "eNK cells",
  "assay": "Live cell confocal microscopy (UGATm) of antibody-dependent cellular cytotoxicity",
  "format": "cell-based, human",
  "conditions": "eNK aggregated with uncoated and RTX-coated Raji cells, no LFA-1 blockade",
  "procedure": "FIGS. 9A-9D. LFA-1 blockade increases bystander killing. Live cell confocal microscopy of antibody-dependent cellular cytotoxicity by eNK cells pre-treated with murine IgG1 mAb control (9A) or LFA-1 blocking mAb (clone TS1/22, 9B). Green, RTX-coated Raji cells (NK-inciting targets); yellow, uncoated Raji cells (bystanders); red, LysoTracker Red (lytic granules); blue, SYTOX Blue viability dye. NK cells were mixed with the target cells immediately before the imaging process and imaged every 4 min for 4 hours. […] Data represent combined results from three healthy donors. Standard 4-hour 51Cr cytotoxicity assay of NK cells treated with LFA-1-blocking mAb or murine IgG control (9D). Each dot represents an individual healthy donor.\nTo apply this concept in the context of physiologic antibody-dependent cell mediated cytotoxicity (ADCC) a human therapeutic monoclonal antibody, Rituximab (RTX) was used along with NK cell resistant Raji cells that naturally express the antigen recognized by RTX. […]\nYTS-CD16 and eNK cells were incubated with 5 μM LysoTracker Red DND-99 (Thermo Fisher) for 30 min at 37° C. and washed. […] Emission was detected with HyD detectors, and images were collected in a single z-plane at one frame every 4 or 30 min for 120 min. […]",
  "data": [
    {"substance": "Rituximab: human therapeutic monoclonal antibody against CD20, used to coat Raji cells for ADCC", "values": [
      {"measurement": "killing of RTX-coated versus uncoated Raji cells", "value": "preferential killing of the RTX-coated Raji cells"}
    ]}
  ]
}
